Earlier results in patent publication US20020187562A1, “Materials for separating and detecting enantiomers of amphetamine or methamphetamine, and their application” (priority 2001, published 2002).

Test system: central nervous system
Details: relative to D-MA

## CN[C@H](C)Cc1ccccc1 [L-MA, (R)-(−)-N-methyl-1-phenyl-2-aminopropane]
  stimulation to the central nervous system of humans compared with D-MA: much weaker than that of D-MA
